One assay deals with T1, Urotensin-2 receptor (Homo sapiens, UniProt Q9UKP6).
T1 sequence (Q9UKP6 whole entry): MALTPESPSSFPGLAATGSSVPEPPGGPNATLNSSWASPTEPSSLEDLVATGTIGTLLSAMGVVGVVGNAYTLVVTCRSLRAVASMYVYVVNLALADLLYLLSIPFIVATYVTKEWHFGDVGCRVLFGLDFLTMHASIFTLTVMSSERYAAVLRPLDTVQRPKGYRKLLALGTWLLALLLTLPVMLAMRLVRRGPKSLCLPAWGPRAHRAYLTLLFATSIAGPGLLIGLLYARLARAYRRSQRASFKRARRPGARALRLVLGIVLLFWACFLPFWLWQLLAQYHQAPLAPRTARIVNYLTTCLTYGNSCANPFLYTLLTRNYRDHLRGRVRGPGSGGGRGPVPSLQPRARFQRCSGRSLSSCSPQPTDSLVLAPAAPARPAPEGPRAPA
As to the kind of experiment: Displacement of [125I]human urotensin-2 from human GPR14 transfected in CHO cells. The class given is cell-based. The conditions noted are these: for Log Ki: cho. A general note: Displacement assays read how much labelled ligand stays bound in the presence of the test substance.

The species entered for assay [1] is Rattus norvegicus. As to the kind of experiment: Agonist activity in rat aortic ring contraction assay. The format is functional. The conditions noted are these: Aorta.
The species entered for assay [2] is Rattus norvegicus. As to the kind of experiment: Agonist activity in rat aortic ring contraction assay relative to 1 uM phenylephrine. The class given is functional.
Assay [3] has as its target T2, Urotensin-2 receptor (Rattus norvegicus) (UniProt P49684).
T2 sequence (whole entry): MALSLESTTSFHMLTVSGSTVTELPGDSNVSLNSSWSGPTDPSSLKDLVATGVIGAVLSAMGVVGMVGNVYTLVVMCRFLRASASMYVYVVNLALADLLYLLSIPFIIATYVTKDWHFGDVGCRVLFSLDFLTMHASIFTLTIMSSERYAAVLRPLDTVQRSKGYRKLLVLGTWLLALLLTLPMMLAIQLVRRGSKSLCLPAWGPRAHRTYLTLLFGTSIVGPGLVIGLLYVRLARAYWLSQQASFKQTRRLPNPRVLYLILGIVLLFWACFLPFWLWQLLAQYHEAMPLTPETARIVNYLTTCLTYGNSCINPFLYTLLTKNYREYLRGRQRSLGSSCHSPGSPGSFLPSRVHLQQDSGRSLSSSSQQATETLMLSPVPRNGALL
As to the kind of experiment: Antagonist activity against 1 uM human urotensin-2-induced contraction of rat aortic ring. The class given is functional, tissue-based. Conditions: Aorta.

The values that follow come from ChEMBL document CHEMBL1137360, “Structure-activity relationships of a novel series of urotensin II analogues: identification of a urotensin II antagonist” (J Med Chem, 2006).

The structures appear in SMILES notation. The source made the active and inactive calls. No cut-off for these calls is given here. Positions of bridges follow the written chain, without caps; N, C: chain ends. Non-standard residues stand in square brackets, D forms with d. Residues, ends and D or L forms follow the SMILES beside them. Phe(4-tBu) = CC(C)(C)c1ccc(C[C@H](N)C(=O)O)cc1; Oic = O=C(O)[C@@H]1C[C@@H]2CCCC[C@@H]2N1; Bta = N[C@@H](Cc1csc2ccccc12)C(=O)O; 2Thi = N[C@@H](Cc1cccs1)C(=O)O; Cha = N[C@@H](CC1CCCCC1)C(=O)O

With `CC(C)[C@H](NC(=O)[C@@H]1CSSC[C@H](NC(=O)[C@@H](N)CC(=O)O)C(=O)N[C@H](CC2CCCCC2)C(=O)N[C@@H](Cc2c[nH]c3ccccc23)C(=O)N[C@@H](CCCCN)C(=O)N[C@@H](Cc2ccc(O)cc2)C(=O)N1)C(=O)O`, the inhibition constant (Ki) (usually a dissociation constant, usually derived from enzyme kinetics or from competition with a known ligand) at Urotensin-2 receptor is greater than 10000 nM. The concentration giving a half-maximal response (EC50) – broadly, the concentration at which the effect is half-maximal – in the assay filed under Rattus norvegicus [1] is greater than 10000 nM. Moreover, the outcome (in the assay listed under Rattus norvegicus [2] (Aorta); in assay [3]) was inactive.
At Urotensin-2 receptor, `CC(C)[C@H](NC(=O)[C@@H]1CSSC[C@H](NC(=O)[C@H](C)N)C(=O)N[C@@H](CC2CCCCC2)C(=O)N[C@@H](Cc2c[nH]c3ccccc23)C(=O)N[C@@H](CCCCN)C(=O)N[C@@H](Cc2ccc(O)cc2)C(=O)N1)C(=O)O` (H-AC[Cha]WKYCV-OH; disulfide 2-7) showed a Ki of 263 nM. Further, the response in the assay listed under Rattus norvegicus [1] was half-maximal at 933 nM (EC50). In the assay listed under Rattus norvegicus [2], this compound had an Activity of 36.9%. Further, the outcome in assay [3] was inactive.
The like results for `CC(C)[C@H](NC(=O)[C@@H]1CSSC[C@H](NC(=O)[C@@H](N)CC(=O)O)C(=O)N[C@@H](Cc2ccccc2)C(=O)N[C@@H](Cc2c[nH]c3ccccc23)C(=O)N[C@@H](CCCCN)C(=O)N[C@@H](Cc2ccc(O)cc2)C(=O)N1)C(=O)O` (H-DCFWKYCV-OH; disulfide 2-7) were, in that order, 1.23 nM, 5.01 nM, 102.1% and “inactive”.
Take `CC(C)[C@H](NC(=O)[C@@H]1CSSC[C@H](NC(=O)[C@@H](N)CC(=O)O)C(=O)N[C@@H](Cc2cccs2)C(=O)N[C@@H](Cc2c[nH]c3ccccc23)C(=O)N[C@@H](CCCCN)C(=O)N[C@@H](Cc2ccc(O)cc2)C(=O)N1)C(=O)O` (H-DC[2Thi]WKYCV-OH; disulfide 2-7) [listing 1 of 2 here]: the “Log Ki” value at Urotensin-2 receptor was -8.54. For the same compound, in the assay filed under Rattus norvegicus [1], a half-maximal effect (EC50) was put at 8.91 nM.
`CC(C)[C@H](NC(=O)[C@@H]1CSSC[C@H](NC(=O)[C@@H](N)CC(=O)O)C(=O)N[C@@H](Cc2cccs2)C(=O)N[C@@H](Cc2c[nH]c3ccccc23)C(=O)N[C@@H](CCCCN)C(=O)N[C@@H](Cc2ccc(O)cc2)C(=O)N1)C(=O)O` (H-DC[2Thi]WKYCV-OH; disulfide 2-7) [listing 2 of 2 here] came in with an Activity in the assay listed under Rattus norvegicus [2] of 94%.
Turning to `CC(C)[C@H](NC(=O)[C@@H]1CSSC[C@H](NC(=O)[C@@H](N)CC(=O)O)C(=O)N[C@@H](Cc2csc3ccccc23)C(=O)N[C@@H](Cc2c[nH]c3ccccc23)C(=O)N[C@@H](CCCCN)C(=O)N[C@@H](Cc2ccc(O)cc2)C(=O)N1)C(=O)O` (H-DC[Bta]WKYCV-OH; disulfide 2-7) [listing 1 of 2 here], the “Log Ki” value on Urotensin-2 receptor was -8.95. The same compound had an EC50 in the assay filed under Rattus norvegicus [1] of 288 nM.
In the case of `CC(C)[C@H](NC(=O)[C@@H]1CSSC[C@H](NC(=O)[C@@H](N)CC(=O)O)C(=O)N[C@@H](Cc2csc3ccccc23)C(=O)N[C@@H](Cc2c[nH]c3ccccc23)C(=O)N[C@@H](CCCCN)C(=O)N[C@@H](Cc2ccc(O)cc2)C(=O)N1)C(=O)O` (H-DC[Bta]WKYCV-OH; disulfide 2-7) [listing 2 of 2 here], the Activity in the assay filed under Rattus norvegicus [2] worked out at 73.8%.
Regarding `CC(C)[C@H](NC(=O)[C@@H]1CSSC[C@H](NC(=O)[C@@H](N)CC(=O)O)C(=O)N2[C@@H](C[C@@H]3CCCC[C@@H]32)C(=O)N[C@@H](Cc2c[nH]c3ccccc23)C(=O)N[C@@H](CCCCN)C(=O)N[C@@H](Cc2ccc(O)cc2)C(=O)N1)C(=O)O` (H-DC[Oic]WKYCV-OH; disulfide 2-7), the “Log Ki” value on Urotensin-2 receptor is less than -5. The compound further had an EC50 in the assay filed under Rattus norvegicus [1] greater than 10000 nM.
For `CC(C)[C@H](NC(=O)[C@@H]1CSSC[C@H](NC(=O)[C@@H](N)CC(=O)O)C(=O)N[C@@H](Cc2ccc(C(C)(C)C)cc2)C(=O)N[C@@H](Cc2c[nH]c3ccccc23)C(=O)N[C@@H](CCCCN)C(=O)N[C@@H](Cc2ccc(O)cc2)C(=O)N1)C(=O)O` (H-DC[Phe(4-tBu)]WKYCV-OH; disulfide 2-7) [listing 1 of 2 here] the same measures were -7.63 and 4.07 nM.
For `CC(C)[C@H](NC(=O)[C@@H]1CSSC[C@H](NC(=O)[C@@H](N)CC(=O)O)C(=O)N[C@@H](Cc2ccc(C(C)(C)C)cc2)C(=O)N[C@@H](Cc2c[nH]c3ccccc23)C(=O)N[C@@H](CCCCN)C(=O)N[C@@H](Cc2ccc(O)cc2)C(=O)N1)C(=O)O` (H-DC[Phe(4-tBu)]WKYCV-OH; disulfide 2-7) [listing 2 of 2 here], the Activity in the assay filed under Rattus norvegicus [2] is on record as 76.7%.
